Experimental data as given in US20150133554A1, “PURIFICATION OF DPA ENRICHED OIL” (Omega Protein Corporation, priority 2013, published 2015).
Read-outs that look alike come from different tables or passages of the source.

What was measured:
THP-1 cells [1] = experiment: Cytokine release (TNF-α, MCP-1, IL-6) by LPS-stimulated THP-1 macrophages after fatty acid incubation; format: cell-based; conditions: compared to control macrophages; for Inflammatory cytokine release (TNF-α, MCP-1, IL-6): 24 h fatty acid (50 and 100 μM), then 24 h LPS; for Cytokine release with increasing concentration of fatty acids: 50 to 100 μM
Protocol: (§1) THP-1 cells were maintained in RPMI 1640+2 mM L-Glutamine, 10 mM HEPES, 1 mM sodium pyruvate, 4500 mg/L glucose, and 1500 mg/L sodium bicarbonate; supplemented with 3.5 μL/L of 2-mercaptoethanol and 10% fetal bovine serum (FBS). Cell line was maintained in 75 cm^2 filtered cap flasks in a 37° C. incubator with 5% CO2. THP-1 cells were seeded in 24 well plates at 5×10^5 cells/mL using 600 μL/well and allowed to differentiate into macrophages (MΦ) for 72 h with phorbol 12-myristate 13-acetate (PMA) at a final concentration of 50 ng/mL.
Experiment 1: Prior to incubation with individual fatty acids, the cells were starved for 8 h in a 2% lipo-free FBS RPMI medium. Individual fatty acids were added in duplicate into the 24 well plate at two concentrations, 50 μM and 100 μM. Every assay was cultured in three runs with duplicates in each run pooled. After incubation for 24 h with fatty acids the MΦ were scraped off the plates and fatty acids were isolated as described in the ‘Animal Tests’ portion of this Example. The fatty acid profiles of the MΦ were determined as previously described (Wang, et al., 2010, Clin. Nutr., DOI: 10.1016/j.clnu.2013.04.009).
(§2) Experiment 2: Previously differentiated MΦ were incubated with fatty acids as described in ‘Experiment 1’ for 24 hours. At the 24 h time point the cells were then stimulated with lipopolysaccharide from E. coli 0111:B4 for another 24 hours. The plates were centrifuged at 1200×g for 5 minutes and supernatant was then collected and analyzed for cytokines. The MΦ were scraped off the plates and fatty acids were isolated as described in the ‘Animal Portion’. The fatty acid profiles of the MΦ were determined as previously described (Wang, et al., 2010, Clin. Nutr., DOI: 10.1016/j.clnu.2013.04.009).
A linear mixed effects model was used in R, lme in the nlme package, for estimating treatment effects on cytokine production in LPS stimulated THP-1 cells. The fixed effects fit were treatment, FA concentration, and when significant LPS concentration was fit as a covariate, the plate cells were cultured on nested within run was fit as a random effect. Least squares means were analyzed as outlined above and pairwise comparisons were made between treatments for FA concentration, or where significant LPS concentration.
The objective of this study was to determine if docosapentaenoic acid n-3 (DPAn3) enrichment of macrophages (MΦ) changed their inflammatory response relative to saturated (S), mono-unsaturated (MU), and other poly-unsaturated (PU) fatty acids (FA). Differentiated THP-1 cells were incubated with one of 11 FA (50 and 100 μM) of varying degrees of unsaturation or no FA for 24 h prior to 24 h of stimulation with lipopolysaccharide from E. coli. Fatty acids were collected from MΦ without stimulation to determine the fatty acid profiles. Media was collected from MΦ post-stimulation and probed for prostaglandin E2, and cytokines, including tumor necrosis factor-α, monocyte chemoattractant protein-1, and interleukin-6. Prostaglandin E2 production was greater (P<0.05) for AA than all other FA, and omega-3 PUFA decreased (P<0.01) PGE2 compared to n6 PUFA and all other FA.

THP-1 cells [2] = experiment: Prostaglandin E2 production by LPS-stimulated THP-1 macrophages after fatty acid incubation; format: cell-based; conditions: 24 h fatty acid (50 and 100 μM), then 24 h LPS; compared to other FA
Protocol: as §1, §2
The objective of this study was to determine if docosapentaenoic acid n-3 (DPAn3) enrichment of macrophages (MΦ) changed their inflammatory response relative to saturated (S), mono-unsaturated (MU), and other poly-unsaturated (PU) fatty acids (FA). […]

[3] = system: murine peritoneal macrophages; conditions: cited from earlier work
MCP-1 = experiment: Fluorescence intensity (relative) of brain microvessel, MCP-1; format: in vivo, mice; conditions: control = 1.00
Text: (§3) 48 male LDLr−/− mice (8-10 weeks of age, ˜20 g) were obtained from Jackson Laboratories (stock #2207) and allowed to acclimate to the cages, room, and feeding design for 12 days. After the acclimation period mice were weighed and randomly assigned to one of six treatments. Mice were fed an isolipid (20% total fatty acids w/w), isonitrogenous, and 0.2% cholesterol (w/w) diet, which is considered atherogenic (Ain76, 58TQ TestDiet®) as a base diet. This base diet was formulated to meet or exceed all nutrient and energy requirements for a growing mouse. The treatments were added to the base diet (0.76% w/w of the total diet) and was made once at the beginning of the study, separated into weekly aliquots, stored at −80° C., allowed to thaw at 4° C. for 2 days prior to feeding, and stored at 4° C. until fed. A sample from each weekly aliquot was collected, composited, and archived for fatty acid analysis at a later date. The treatments were as follows: (1) Negative control diet, 3.5% of the total fatty acids were replaced with milk fat (the only source of fat in the base diet), (2) 3.5% of the total fatty acids were replaced with purified ethyl esters of DHA, (3) 3.5% of the total fatty acids were replaced with purified ethyl esters of DPAn3, (4) 3.5% of the total fatty acids were replaced with purified ethyl esters of EPA, (5) 3.5% of the total fatty acids were replaced with omega-3 fatty acids from Lovaza® (GlaxoSmithKline), and (6) 3.5% of the total fatty acids were replaced with omega-3 fatty acids from ΩmegaActiv® DPA 5000 (Omega Protein Inc., Houston, Tex.; Table 1). […]

LDLr−/− mice [4] = experiment: Serum lipid profile of LDLr−/− mice fed an atherogenic diet; format: in vivo; conditions: week 20
Text: (§4) 48 male LDLr−/− mice (8-10 weeks of age, ˜20 g) were obtained from Jackson Laboratories (stock #2207) and allowed to acclimate to the cages, room, and feeding design for 12 days. After the acclimation period mice were weighed and randomly assigned to one of six treatments. Mice were fed an isolipid (20% total fatty acids w/w), isonitrogenous, and 0.2% cholesterol (w/w) diet, which is considered atherogenic (Ain76, 58TQ TestDiet®) as a base diet. This base diet was formulated to meet or exceed all nutrient and energy requirements for a growing mouse. The treatments were added to the base diet (0.76% w/w of the total diet) and was made once at the beginning of the study, separated into weekly aliquots, stored at −80° C., allowed to thaw at 4° C. for 2 days prior to feeding, and stored at 4° C. until fed. A sample from each weekly aliquot was collected, composited, and archived for fatty acid analysis at a later date. The treatments were as follows: (1) Negative control diet, 3.5% of the total fatty acids were replaced with milk fat (the only source of fat in the base diet), (2) 3.5% of the total fatty acids were replaced with purified ethyl esters of DHA, (3) 3.5% of the total fatty acids were replaced with purified ethyl esters of DPAn3, (4) 3.5% of the total fatty acids were replaced with purified ethyl esters of EPA, (5) 3.5% of the total fatty acids were replaced with omega-3 fatty acids from Lovaza® (GlaxoSmithKline), and (6) 3.5% of the total fatty acids were replaced with omega-3 fatty acids from ΩmegaActiv® DPA 5000 (Omega Protein Inc., Houston, Tex.; Table 1).
Mouse body weights were recorded once weekly in conjunction with cage changes. Blood serum lipid profiles were analyzed on blood samples from the mice before (subset of 6 mice), 10 weeks, and 20 weeks relative to initiation of dietary treatments. Three to five days prior to the end of the study each mouse was administered an intraperitoneal injection of 1.0 mL thioglycollate broth (4.05 g/dL) to elicit peritoneal macrophages. The peritoneal cells centrifuged then cultured in RPMI 1640 (+2 mM L-glutamine, +10 mM HEPES, +1 mM sodium pyruvate, +4500 mg/L glucose, +1500 mg/L sodium bicarbonate) on tissue culture plates (size) which allowed for adhesion of the macrophages. Plates where then vigorously washed to ensure proper macrophage isolation. Macrophages were scraped off the plates and aliquotted into a glass tube for fatty acid extraction, which was then performed via a modified Folch method. The heart and aorta were isolated from each mouse and immediately frozen in liquid nitrogen for later dissection. Aortic arches were dissected from the aortic root to the abdominal aorta using a microscope. Total lipid content was measured using the procedure outline by Folch, et al. (1957) J. Biol. Chem., 226:497-509, prior to cholesterol assessment. Total cholesterol, free cholesterol, and cholesterol ester were quantified as previously described (Wang, et al., 2010, Clin. Nutr., DOI: 10.1016/j.clnu.2013.04.009).
Average daily feed intake for the mice was cut into quartiles in order to assign a feed consumption class. A linear mixed effects model was used in R, lme in the nlme package, for estimating treatment effects on blood lipid profiles in mice. The fixed effects fit were treatment, and week of study, animal nested within treatment was fit as a random effect. Least squares means were calculated using the lsmeans package for all blood lipid profiles and a general linear hypothesis test, using glht in the multcomp package, was utilized for specified contrasts, control vs. the average of all omega-3 containing diets. Because Lovaza® is composed of high and almost equal levels of EPA and DHA we also contrasted the diet supplemented with Lovaza® to the average of the diets supplemented with EPA and DHA alone. Pairwise comparisons were made between time of blood analysis, and between treatments at each individual time frame.

TNF-α [5] = experiment: TNF-α concentration in adipose tissue of mice fed omega-3 products; format: in vivo
Text: as §4
TNF-α concentration in adipose tissue of mice fed with different omega-3 products

IL-8 [6] = experiment: Fluorescence intensity (relative) of brain hippocampus, IL-8; format: in vivo, mice; conditions: control = 1
Text: as §3

TNF-α [7] = experiment: Fluorescence intensity (relative) of brain hippocampus, TNF-α; format: in vivo, mice; conditions: control = 1
Text: as §3

LDLr−/− mice [8] = experiment: Serum glucose of LDLr−/− mice fed an atherogenic diet; format: in vivo; conditions: week 20
Text: (§5) 48 male LDLr−/− mice (8-10 weeks of age, ˜20 g) were obtained from Jackson Laboratories (stock #2207) and allowed to acclimate to the cages, room, and feeding design for 12 days. After the acclimation period mice were weighed and randomly assigned to one of six treatments. Mice were fed an isolipid (20% total fatty acids w/w), isonitrogenous, and 0.2% cholesterol (w/w) diet, which is considered atherogenic (Ain76, 58TQ TestDiet®) as a base diet. This base diet was formulated to meet or exceed all nutrient and energy requirements for a growing mouse. The treatments were added to the base diet (0.76% w/w of the total diet) and was made once at the beginning of the study, separated into weekly aliquots, stored at −80° C., allowed to thaw at 4° C. for 2 days prior to feeding, and stored at 4° C. until fed. A sample from each weekly aliquot was collected, composited, and archived for fatty acid analysis at a later date. […]
(§6) Mouse body weights were recorded once weekly in conjunction with cage changes. Blood serum lipid profiles were analyzed on blood samples from the mice before (subset of 6 mice), 10 weeks, and 20 weeks relative to initiation of dietary treatments. […] Total lipid content was measured using the procedure outline by Folch, et al. (1957) J. Biol. Chem., 226:497-509, prior to cholesterol assessment. Total cholesterol, free cholesterol, and cholesterol ester were quantified as previously described (Wang, et al., 2010, Clin. Nutr., DOI: 10.1016/j.clnu.2013.04.009).
Average daily feed intake for the mice was cut into quartiles in order to assign a feed consumption class. […] Least squares means were calculated using the lsmeans package for all blood lipid profiles and a general linear hypothesis test, using glht in the multcomp package, was utilized for specified contrasts, control vs. the average of all omega-3 containing diets. […]

IL-8 [9] = experiment: Fluorescence intensity (relative) of brain microvessel, IL-8; format: in vivo, mice; conditions: control = 1.00
Text: as §3

LDLr−/− mice [10] = experiment: Lipid and cholesterol (TC, FC, CE) in aortas of LDLr−/− mice fed an atherogenic diet; format: in vivo; conditions: supplement 0.76% w/w of the diet
Text: as §5, §6
An analysis of variance model was used in R, aov in the stats package, for estimating treatment effects on cholesterol deposition in mouse aortas. Least squares means and contrasts were analyzed as outlined above. […]

TIMP2 = experiment: Fluorescence intensity (relative) of brain hippocampus, TIMP2; format: in vivo, mice; conditions: control = 1
Text: as §3

SMILES | Inflammatory cytokine release (TNF-α, MCP-1, IL-6) (THP-1 cells [1]) | Prostaglandin E2 production (THP-1 cells [2]) | TNF-α production ([3]; AA at 2-5 μM) | TNF-α production ([3]; AA at concentrations as low as 1 μM) | Cytokine release with increasing concentration of fatty acids (THP-1 cells [1]) | MCP-1 fluorescence intensity (relative) (MCP-1) | Serum LDL cholesterol (LDLr−/− mice [4]) | Serum total cholesterol (LDLr−/− mice [4]) | TNF-α Concentration (TNF-α [5]) | IL-8 fluorescence intensity (relative) (IL-8 [6]) | TNF-α fluorescence intensity (relative) (TNF-α [7]) | Glucose concentration in serum (LDLr−/− mice [8]) | IL-8 fluorescence intensity (relative) (IL-8 [9]) | Aorta lipid (LDLr−/− mice [10]) | TIMP2 fluorescence intensity (relative) (TIMP2)
CCCCC/C=C\C/C=C\C/C=C\C/C=C\CCCC(=O)O [AA, arachidonic acid] | decreased | greater | completely inhibited | decreased |  |  |  |  |  |  |  |  |  |  | 
CCCCCCCCCCCCCCCC(=O)O [C16:0] | did not change |  |  |  | did not change, or increased |  |  |  |  |  |  |  |  |  | 
CCCCCCCCCCCCCCCCCC(=O)O [C18:0] | did not change |  |  |  | did not change, or increased |  |  |  |  |  |  |  |  |  | 
CC/C=C\C/C=C\C/C=C\C/C=C\C/C=C\C/C=C\CCC(=O)O [DHA, docosahexaenoic acid] |  |  |  |  |  | 0.93 | 495.51 mg/dL | 726.86 mg/dL | 0.82 pg/μg protein | 0.46 | 0.29 | 172.58 mg/dL | 0.86 | 36.38% | 0.23
CC/C=C\C/C=C\C/C=C\C/C=C\C/C=C\CCCCCC(=O)O [DPA, docosapentaenoic acid] |  |  |  |  |  | 0.92 | 563.45 mg/dL | 692.98 mg/dL | 0.41 pg/μg protein | 0.70 | 0.28 | 166.23 mg/dL | 0.96 | 29.52% | 0.17
CC/C=C\C/C=C\C/C=C\C/C=C\C/C=C\CCCC(=O)O [EPA, eicosapentaenoic acid] |  |  |  |  |  | 0.96 | 562.07 mg/dL | 663.37 mg/dL | 0.58 pg/μg protein | 0.72 | 0.31 | 198.65 mg/dL | 0.93 | 29.93% | 0.63
CCCCCCCC/C=C\CCCCCCCC(=O)O [oleic acid] | did not change |  |  |  | did not change, or increased |  |  |  |  |  |  |  |  |  | 
